Measured values published in PubChem BioAssay (NCI).
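Tested at 5 concentrations; 48 h exposure; 96-well plates; endpoints linearly interpolated, else capped at highest concentration. GI50 = concentration required for 50% inhibition of growth. TGI marks complete inhibition of growth.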

Assays:
Assay in all cases: NCI tumour cell line growth inhibition, 48 h
HOP-92 NSCLC = tested on: HOP-92 NSCLC
NCI-H23 lung = tested on: NCI-H23 lung
SK-MEL-2 melanoma = tested on: SK-MEL-2 melanoma
HCT-116 colon = tested on: HCT-116 colon
MCF7 breast = tested on: MCF7 breast
SW-620 colon = tested on: SW-620 colon
MALME-3M melanoma = tested on: MALME-3M melanoma
OVCAR-3 ovarian = tested on: OVCAR-3 ovarian
A498 renal = tested on: A498 renal
SN12C renal = tested on: SN12C renal
SF-268 CNS = tested on: SF-268 CNS
SNB-75 CNS = tested on: SNB-75 CNS
MDA-MB-435 = tested on: MDA-MB-435
SF-539 CNS = tested on: SF-539 CNS
HOP-62 NSCLC = tested on: HOP-62 NSCLC
COLO 205 colon = tested on: COLO 205 colon
RPMI-8226 leukemia = tested on: RPMI-8226 leukemia
HT29 colon = tested on: HT29 colon
DU-145 prostate = tested on: DU-145 prostate
NCI-H522 lung = tested on: NCI-H522 lung
UACC-257 melanoma = tested on: UACC-257 melanoma
HCT-15 colon = tested on: HCT-15 colon
MOLT-4 leukemia = tested on: MOLT-4 leukemia
K-562 leukemia = tested on: K-562 leukemia
TK-10 renal = tested on: TK-10 renal
OVCAR-5 ovarian = tested on: OVCAR-5 ovarian
MDA-MB-231 breast = tested on: MDA-MB-231 breast
NCI/ADR-RES ovarian = tested on: NCI/ADR-RES ovarian
UACC-62 melanoma = tested on: UACC-62 melanoma
T-47D breast = tested on: T-47D breast
HCC-2998 colon = tested on: HCC-2998 colon
SK-OV-3 ovarian = tested on: SK-OV-3 ovarian
BT-549 breast = tested on: BT-549 breast
OVCAR-8 ovarian = tested on: OVCAR-8 ovarian
HS 578T breast = tested on: HS 578T breast
OVCAR-4 ovarian = tested on: OVCAR-4 ovarian
SK-MEL-28 melanoma = tested on: SK-MEL-28 melanoma
HL-60(TB) leukemia = tested on: HL-60(TB) leukemia
CCRF-CEM leukemia = tested on: CCRF-CEM leukemia
EKVX NSCLC = tested on: EKVX NSCLC
SF-295 CNS = tested on: SF-295 CNS
PC-3 prostate = tested on: PC-3 prostate
NCI-H226 lung = tested on: NCI-H226 lung
KM12 colon = tested on: KM12 colon
LOX IMVI melanoma = tested on: LOX IMVI melanoma
UO-31 renal = tested on: UO-31 renal
RXF 393 renal = tested on: RXF 393 renal
SR leukemia = tested on: SR leukemia
SNB-19 CNS = tested on: SNB-19 CNS
M14 melanoma = tested on: M14 melanoma
IGROV1 ovarian = tested on: IGROV1 ovarian
NCI-H460 lung = tested on: NCI-H460 lung
SK-MEL-5 melanoma = tested on: SK-MEL-5 melanoma

C#C[C@@]1(O)[C@@H](CO)O[C@@H](n2cc(Br)c3c(N)ncnc32)[C@@H]1O
GI50 (HOP-92 NSCLC): 218 nM
TGI (HOP-92 NSCLC): 1460 nM
GI50 (NCI-H23 lung): 191 nM
TGI (NCI-H23 lung): 2850 nM
GI50 (SK-MEL-2 melanoma): 134 nM
TGI (SK-MEL-2 melanoma): 571 nM
GI50 (HCT-116 colon): 27.4 nM
TGI (HCT-116 colon): > 100000 nM
GI50 (MCF7 breast): 22.2 nM
TGI (MCF7 breast): 1470 nM
GI50 (SW-620 colon): 48.7 nM
TGI (SW-620 colon): > 100000 nM
GI50 (MALME-3M melanoma): 708 nM
TGI (MALME-3M melanoma): 13100 nM
GI50 (OVCAR-3 ovarian): 215 nM
TGI (OVCAR-3 ovarian): 3770 nM
GI50 (A498 renal): 227 nM
TGI (A498 renal): 587 nM
GI50 (SN12C renal): 90.7 nM
TGI (SN12C renal): > 100000 nM
GI50 (SF-268 CNS): 482 nM
TGI (SF-268 CNS): 51700 nM
GI50 (SNB-75 CNS): 234 nM
TGI (SNB-75 CNS): 746 nM
GI50 (MDA-MB-435): 176 nM
TGI (MDA-MB-435): 10300 nM
GI50 (SF-539 CNS): 298 nM
TGI (SF-539 CNS): 1530 nM
GI50 (HOP-62 NSCLC): 300 nM
TGI (HOP-62 NSCLC): > 21800 nM
GI50 (COLO 205 colon): 89.1 nM
TGI (COLO 205 colon): 460 nM
GI50 (RPMI-8226 leukemia): 128 nM
TGI (RPMI-8226 leukemia): 828 nM
GI50 (HT29 colon): 38 nM
TGI (HT29 colon): > 100000 nM
GI50 (DU-145 prostate): 97.4 nM
TGI (DU-145 prostate): > 100000 nM
GI50 (NCI-H522 lung): 97.8 nM
TGI (NCI-H522 lung): 444 nM
GI50 (UACC-257 melanoma): 4080 nM
TGI (UACC-257 melanoma): 61600 nM
GI50 (HCT-15 colon): 110 nM
TGI (HCT-15 colon): > 100000 nM
GI50 (MOLT-4 leukemia): 112 nM
GI50 (K-562 leukemia): 60.8 nM
TGI (K-562 leukemia): > 100000 nM
GI50 (TK-10 renal): 445 nM
TGI (TK-10 renal): > 92600 nM
GI50 (OVCAR-5 ovarian): 593 nM
TGI (OVCAR-5 ovarian): > 75300 nM
GI50 (MDA-MB-231 breast): 110 nM
TGI (MDA-MB-231 breast): > 100000 nM
GI50 (NCI/ADR-RES ovarian): 45.1 nM
TGI (NCI/ADR-RES ovarian): 1020 nM
GI50 (UACC-62 melanoma): 230 nM
TGI (UACC-62 melanoma): 12300 nM
GI50 (T-47D breast): 17.3 nM
TGI (T-47D breast): 177 nM
GI50 (HCC-2998 colon): 201 nM
TGI (HCC-2998 colon): 809 nM
GI50 (SK-OV-3 ovarian): 44.1 nM
TGI (SK-OV-3 ovarian): 439 nM
GI50 (BT-549 breast): 186 nM
TGI (BT-549 breast): 663 nM
GI50 (OVCAR-8 ovarian): 13.5 nM
TGI (OVCAR-8 ovarian): 1120 nM
GI50 (HS 578T breast): 644 nM
TGI (HS 578T breast): > 72400 nM
GI50 (OVCAR-4 ovarian): 366 nM
TGI (OVCAR-4 ovarian): > 100000 nM
GI50 (SK-MEL-28 melanoma): 3650 nM
TGI (SK-MEL-28 melanoma): 38100 nM
GI50 (HL-60(TB) leukemia): 21.8 nM
TGI (HL-60(TB) leukemia): 75.7 nM
GI50 (CCRF-CEM leukemia): 200 nM
TGI (CCRF-CEM leukemia): > 100000 nM
GI50 (EKVX NSCLC): 198 nM
TGI (EKVX NSCLC): 2680 nM
GI50 (SF-295 CNS): 297 nM
TGI (SF-295 CNS): 7520 nM
GI50 (PC-3 prostate): 89.3 nM
TGI (PC-3 prostate): > 29500 nM
GI50 (NCI-H226 lung): 1280 nM
TGI (NCI-H226 lung): > 25200 nM
GI50 (KM12 colon): 107 nM
TGI (KM12 colon): > 100000 nM
GI50 (LOX IMVI melanoma): 55.2 nM
TGI (LOX IMVI melanoma): 249 nM
GI50 (UO-31 renal): 130 nM
TGI (UO-31 renal): 1500 nM
GI50 (RXF 393 renal): 480 nM
TGI (RXF 393 renal): 2290 nM
GI50 (SR leukemia): 60.8 nM
TGI (SR leukemia): > 100000 nM
GI50 (SNB-19 CNS): 60.6 nM
GI50 (M14 melanoma): 226 nM
TGI (M14 melanoma): 13500 nM
GI50 (IGROV1 ovarian): 69.9 nM
TGI (IGROV1 ovarian): 485 nM
GI50 (NCI-H460 lung): 29.2 nM
TGI (NCI-H460 lung): 901 nM
GI50 (SK-MEL-5 melanoma): 107 nM
TGI (SK-MEL-5 melanoma): 1940 nM
